In experiment [1] the test system is Mycobacterium tuberculosis. Description: Antitubercular activity against Mycobacterium tuberculosis H37Rv. In kind it is functional.
The subject of experiment [2] is Mycobacterium tuberculosis. Description: Antimycobacterial activity against Mycobacterium tuberculosis H37Rv ATCC 27294 at < 0.1 ug/mL by microplate alamar blue assay. In kind it is functional. (In general: Resazurin is reduced to fluorescent resorufin, in cell work by metabolically active cells.)
Experiment [3] deals with Mycobacterium tuberculosis. Description: Antimycobacterial activity against Bovin sensitive Mycobacterium tuberculosis measured after six weeks. In kind it is functional.
Experiment [4] has as its system Mycobacterium tuberculosis. Nature of the experiment: Antimycobacterial activity against human sensitive Mycobacterium tuberculosis measured after six weeks. In kind it is functional.
For experiment [5], the system named is Mycobacterium tuberculosis. Description: Antimycobacterial activity against Mycobacterium tuberculosis H37Rv after 10 to 12 days by serial dilution method. In kind it is functional.
Experiment [6] has as its system Mycobacterium tuberculosis. Nature of the experiment: Antimycobacterial activity against Mycobacterium tuberculosis H37Rv after 5 days by microplate alamar blue assay. In kind it is functional. As to conditions: 120 h.
A short description of experiment [7]: Inhibition of DNA gyrase (unknown origin).
The next experiment relates to Mycobacterium kansasii. Nature of the experiment: Antimycobacterial activity against Mycobacterium kansasii by serial dilution method. In kind it is functional.
In a further experiment the test system is Mycobacterium avium. Description: Antimycobacterial activity against Mycobacterium avium by serial dilution method. In kind it is functional.
Experiment [8] has as its system Mycobacterium intracellulare. Description: Antimycobacterial activity against Mycobacterium intracellulare by serial dilution method. In kind it is functional.
Experiment [9] has as its system Mycolicibacterium fortuitum. Nature of the experiment: Antimycobacterial activity against Mycobacterium fortuitum by serial dilution method. In kind it is functional.
Experiment [10] relates to Mycolicibacterium smegmatis. Description: Antimycobacterial activity against Mycobacterium smegmatis ATCC 607 by serial dilution method. In kind it is functional.
Another experiment has as its system Mycolicibacterium phlei. Nature of the experiment: Antimycobacterial activity against Mycobacterium phlei by serial dilution method. In kind it is functional.
Experiment [11] concerns Mycobacterium tuberculosis. Nature of the experiment: Antimycobacterial activity against Mycobacterium tuberculosis H37Rv by NCCLS method. In kind it is functional.
Experiment [12] has as its system Mycobacterium tuberculosis. Nature of the experiment: Antimycobacterial activity against Mycobacterium tuberculosis H37Rv ATCC 27294 measured after 5 to 8 days. In kind it is functional.
Experiment [13] relates to Mycobacterium tuberculosis. Description: Growth inhibition of Mycobacterium tuberculosis H37Rv ATCC 27294 measured after 5 to 8 days. In kind it is functional.
Experiment [14] deals with Mycobacterium tuberculosis. Description: Potency index, ratio of pyrazinamide MIC to compound MIC for Mycobacterium tuberculosis H37Rv. In kind it is functional.

≈ marks a conversion by molar mass, not a printed value.

In general, MIC refers to the lowest concentration that inhibits growth of the organism. Lower therefore signals inhibition by little substance. `Cc1ccc2nc(Cl)c(C3C(Cl)C(=O)N3NC(=O)c3ccncc3)cc2c1` (stereo not drawn) came in with a minimal inhibitory concentration (MIC) in experiment [1] of 12.5 µg/mL.
`C[C@]12CC/C(=N\NC(=O)c3ccncc3)C[C@@H]1CC[C@@H]1[C@@H]2CC[C@]2(C)/C(=N/NC(=O)c3ccncc3)CC[C@@H]12`: the “inhibition (INH)” value in [2] is recorded as more than 95%.
For `C=CCN1C(=O)/C(=N\NC(=O)c2ccncc2)c2ccccc21`, the MIC in [3] and in [4] was 2.7 to 3.5 µg/mL (≈ 8.81 to 11.4 µM) in each case.
In [5], `C[C@]12CC[C@H]3[C@@](CC[C@@H]4[C@]3(C)CCC[C@@]4(C)C(=O)O)(C/C1=N/NC(=O)c1ccncc1)C2` returned a minimum inhibitory concentration (MIC) of 10 to 20 µg/mL (≈ 22.9 to 45.7 µM).
In experiment [6], `COc1cc(C2SCC(=O)N2NC(=O)c2ccccc2)ccc1O` (stereo not drawn) gave an MIC of 0.31 µg/mL (≈ 0.9 µM).
As a reminder, the IC50 is the concentration needed to halve the response being measured. For `COc1c(N2CCN(CN3C(=O)/C(=N\NC(=O)c4ccncc4)c4ccccc43)C(C)C2)c(F)cc2c(=O)c(C(=O)O)cn(C3CC3)c12` (stereo not drawn), the MIC in [1] amounted to 0.2 µg/mL. The IC50 in experiment [7] was determined as 4 µg/mL (≈ 6.12 µM).
Take `C/C(=N\NC(=O)c1ccncc1)c1ccc(N)cc1`: in experiment [1], 0.23 µM was the least that counted as inhibitory (MIC).
As for `O=C(CNNC(=O)c1ccncc1)COc1ccc(/C=C2\SC(=O)NC2=O)cc1`, the MIC in experiment [1] was in the range of 50 to 100 µg/mL.
Consider `C[C@]12CC[C@@H](O)C[C@@H]1CC[C@@H]1[C@@H]2CC[C@]2(C)/C(=N/NC(=O)c3ccncc3)CC[C@@H]12`, for which the MIC (against Mycobacterium kansasii; against Mycobacterium avium; in experiment [8]; in experiment [9]; in experiment [10]; against Mycolicibacterium phlei) was 3.5 to 1000 µg/mL (≈ 8.55 to 2440 µM) each time.
As for `C[C@]12CC/C(=N\NC(=O)c3ccncc3)C=C1CC[C@@H]1[C@@H]2CC[C@]2(C)/C(=N/NC(=O)c3ccncc3)CC[C@@H]12`, in experiment [2], the “inhibition (INH)” value is given as more than 95%.
With `CC[C@@H](CO)NCCN[C@@H](CC)CO` [ETHAMBUTOL], inhibition of growth in experiment [11] (MIC) required 3.25 µg/mL (≈ 15.9 µM).
For the compound `C=C1C[C@]23CC[C@@H]4[C@](C)(CCC[C@@]4(C)C(=O)NNc4cccnc4)[C@H]2CC[C@]1(O[C@@H]1O[C@H](COC(C)=O)[C@@H](OC(C)=O)[C@H](OC(C)=O)[C@H]1O[C@@H]1O[C@H](COC(C)=O)[C@@H](OC(C)=O)[C@H](OC(C)=O)[C@H]1O)C3`, the MIC in experiment [5] came out at 10 µg/mL (≈ 10.1 µM).
`O=C(NN1C(=O)C(Cl)C1c1ccccc1O)c1ccncc1` (stereo not drawn) gave an MIC in experiment [6] of 0.62 µg/mL (≈ 1.95 µM).
Take `CO[C@H]1/C=C/O[C@@]2(C)Oc3c(C)c(O)c4c(O)c(c(/C=N/N5CCN(C)CC5)c(O)c4c3C2=O)NC(=O)/C(C)=C\C=C\[C@H](C)[C@H](O)[C@@H](C)[C@@H](O)[C@@H](C)[C@H](OC(C)=O)[C@@H]1C` [RIFAMPIN]: the MIC in experiment [6] was determined as 1 µg/mL (≈ 1.22 µM); in experiment [12] it was 0.25 µg/mL (≈ 0.304 µM); in experiment [11], 0.1 µg/mL (≈ 0.122 µM). For the same compound, the “growth inhibition (GI)” value in [13] was determined as 86%.
Take `COc1nc2ccccc2cc1C1C(Cl)C(=O)N1NC(=O)c1ccncc1` (stereo not drawn): in [1], the minimum inhibitory concentration (MIC) was 3.12 to 6.25 µg/mL.
Turning to `O=C(NN1C(=O)C(Cl)C1c1ccco1)c1ccncc1` (stereo not drawn), the lowest concentration to inhibit growth in experiment [6] (MIC) was 1.25 µg/mL (≈ 4.29 µM).
With `Cc1c(C(=O)NNC(=O)c2ccncc2)nn(-c2ccc(Cl)cc2Cl)c1-c1ccccc1`, in [11], the lowest concentration to inhibit growth (MIC) was 25 µg/mL (≈ 53.6 µM). In addition, the Ratio in experiment [14] came out at 4.
As for `O=C(NN1C(=O)C(Cl)C1c1cc2cc(Cl)ccc2nc1Cl)c1ccncc1` (stereo not drawn), inhibition of growth in [1] (MIC) required 12.5 µg/mL.
Same read-out and setting: the same measure for `O=C(NN1C(=O)C(Cl)C1c1cc2cc(Br)ccc2nc1Cl)c1ccncc1` (stereo not drawn): 12.5 µg/mL.
`COc1ccc(C2C(Cl)C(=O)N2NC(=O)c2ccncc2)cc1` (stereo not drawn) gave a minimal inhibitory concentration (MIC) in experiment [6] of 0.31 to 5 µg/mL (≈ 0.934 to 15.1 µM).
In turn, `COc1cc(C2C(Cl)C(=O)N2NC(=O)c2ccncc2)ccc1O` (stereo not drawn) registered an MIC in experiment [6] of 0.31 µg/mL (≈ 0.891 µM).
As for `C=C1C[C@]23CC[C@@H]4[C@](C)(CCC[C@@]4(C)C(=O)O[C@@H]4O[C@H](CO)[C@@H](O)[C@H](O)[C@H]4O)[C@H]2CC[C@]1(O[C@@H]1O[C@H](CO)[C@@H](O)[C@H](O)[C@H]1O[C@@H]1O[C@H](CO)[C@@H](O)[C@H](O)[C@H]1O)C3`, the MIC in experiment [5] came out at 7.5 µg/mL (≈ 9.32 µM).

(Values after ChEMBL document CHEMBL4052616, “Isoniazid derivatives and their anti-tubercular activity” (Eur J Med Chem, 2017).)
